Reference: PubChem BioAssay AID1963864 (Molecular Pharmacology Branch, DTP, NCI, 2024)

Tested on: KRAS PDC multicell spheroid viability
Experiment: Anticancer human tumor 521955-158-R6-J3-PDC patient-derived pancreatic carcinoma cell line growth inhibition [KRAS2]
Conditions: for IC50: curve of first compound; for viability, T/C: stronger effect = lower value
In short: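 Combination screen of spheroid viability in tumor-cell co-cultures with endothelial (HUVEC) and mesenchymal stem cell stroma. Each agent was tested in half-log dilutions, topping at clinical Cmax or at 10 microM without a known Cmax.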

[1] = second compound 0.1 µM, first compound 0.000316 µM
[2] = second compound 0.1 µM, first compound 0.001 µM
[3] = second compound 0.1 µM, first compound 0.00316 µM
[4] = second compound 0.1 µM, first compound 0.01 µM
[5] = second compound 0.1 µM, first compound 0.0316 µM
[6] = second compound 0.316 µM, first compound 0.000316 µM
[7] = second compound 0.316 µM, first compound 0.001 µM
[8] = second compound 0.316 µM, first compound 0.00316 µM
[9] = second compound 0.316 µM, first compound 0.01 µM
[10] = second compound 0.316 µM, first compound 0.0316 µM
[11] = second compound 1 µM, first compound 0.000316 µM
[12] = second compound 1 µM, first compound 0.001 µM
[13] = second compound 1 µM, first compound 0.00316 µM
[14] = second compound 1 µM, first compound 0.01 µM
[15] = second compound 1 µM, first compound 0.0316 µM
[16] = second compound 3.16 µM, first compound 0.000316 µM
[17] = second compound 3.16 µM, first compound 0.001 µM
[18] = second compound 3.16 µM, first compound 0.00316 µM
[19] = second compound 3.16 µM, first compound 0.01 µM
[20] = second compound 3.16 µM, first compound 0.0316 µM
[21] = second compound 10 µM, first compound 0.000316 µM
[22] = second compound 10 µM, first compound 0.001 µM
[23] = second compound 10 µM, first compound 0.00316 µM
[24] = second compound 10 µM, first compound 0.01 µM
[25] = second compound 10 µM, first compound 0.0316 µM
[26] = second compound 0.1 µM, first compound 0.1 µM
[27] = second compound 0.316 µM, first compound 0.1 µM
[28] = second compound 1 µM, first compound 0.1 µM
[29] = second compound 3.16 µM, first compound 0.1 µM
[30] = second compound 10 µM, first compound 0.1 µM
[31] = second compound 0.1 µM, first compound 0.316 µM
[32] = second compound 0.1 µM, first compound 1 µM
[33] = second compound 0.1 µM, first compound 3.16 µM
[34] = second compound 0.1 µM, first compound 10 µM
[35] = second compound 0.316 µM, first compound 0.316 µM
[36] = second compound 0.316 µM, first compound 1 µM
[37] = second compound 0.316 µM, first compound 3.16 µM
[38] = second compound 0.316 µM, first compound 10 µM
[39] = second compound 1 µM, first compound 0.316 µM
[40] = second compound 1 µM, first compound 1 µM
[41] = second compound 1 µM, first compound 3.16 µM
[42] = second compound 1 µM, first compound 10 µM
[43] = second compound 3.16 µM, first compound 0.316 µM
[44] = second compound 3.16 µM, first compound 1 µM
[45] = second compound 3.16 µM, first compound 3.16 µM
[46] = second compound 3.16 µM, first compound 10 µM
[47] = second compound 10 µM, first compound 0.316 µM
[48] = second compound 10 µM, first compound 1 µM
[49] = second compound 10 µM, first compound 3.16 µM
[50] = second compound 10 µM, first compound 10 µM
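Further: drug exposure lasted seven days.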
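Wherever viability, T/C is given: 100% = DMSO vehicle wells and lower means fewer viable cells.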

CC(=O)Nc1cccc(-n2c(=O)n(C3CC3)c(=O)c3c(Nc4ccc(I)cc4F)n(C)c(=O)c(C)c32)c1 + CNCc1ccccc1-c1csc(C(C)Nc2nc(C)nc3cc(OC)c(OC)cc23)c1
IC50 (second compound 0.1 µM): 16.7 nM
IC50 (second compound 0.316 µM): 15.1 nM
IC50 (second compound 1 µM): 4.73 nM
IC50 (second compound 3.16 µM): < 0.1 nM
IC50 (second compound 10 µM): < 0.1 nM
viability, T/C (second compound 0.1 µM, first compound 0.0001 µM): 84.3%
viability, T/C [1]: 83.3%
viability, T/C [2]: 88.9%
viability, T/C [3]: 75%
viability, T/C [4]: 60.7%
viability, T/C [5]: 37.4%
viability, T/C (second compound 0.316 µM, first compound 0.0001 µM): 70.3%
viability, T/C [6]: 90.2%
viability, T/C [7]: 80.8%
viability, T/C [8]: 72.4%
viability, T/C [9]: 60%
viability, T/C [10]: 33.2%
viability, T/C (second compound 1 µM, first compound 0.0001 µM): 69.1%
viability, T/C [11]: 76.6%
viability, T/C [12]: 65.9%
viability, T/C [13]: 58.4%
viability, T/C [14]: 35.3%
viability, T/C [15]: 12.3%
viability, T/C (second compound 3.16 µM, first compound 0.0001 µM): 1.97%
viability, T/C [16]: 0.17%
viability, T/C [17]: 7.16%
viability, T/C [18]: 2.18%
viability, T/C [19]: 8.31%
viability, T/C [20]: 1.89%
viability, T/C (second compound 10 µM, first compound 0.0001 µM): 2.4%
viability, T/C [21]: 1.9%
viability, T/C [22]: 0.16%
viability, T/C [23]: 0.16%
viability, T/C [24]: 4.06%
viability, T/C [25]: 0.45%

CN(C)C/C=C/C(=O)Nc1cc2c(Nc3ccc(F)c(Cl)c3)ncnc2cc1O[C@H]1CCOC1 + CNCc1ccccc1-c1csc(C(C)Nc2nc(C)nc3cc(OC)c(OC)cc23)c1
IC50 (second compound 0.1 µM): > 100 nM
IC50 (second compound 0.316 µM): > 100 nM
IC50 (second compound 1 µM): > 100 nM
IC50 (second compound 3.16 µM): 1.98 nM
IC50 (second compound 10 µM): < 0.316 nM
viability, T/C [1]: 82.2%
viability, T/C [2]: 77.5%
viability, T/C [3]: 79.8%
viability, T/C [4]: 81.3%
viability, T/C [5]: 55%
viability, T/C [26]: 53.6%
viability, T/C [6]: 82.9%
viability, T/C [7]: 77.8%
viability, T/C [8]: 64.8%
viability, T/C [9]: 71.9%
viability, T/C [10]: 58.3%
viability, T/C [27]: 56.7%
viability, T/C [11]: 98.4%
viability, T/C [12]: 68.2%
viability, T/C [13]: 59.1%
viability, T/C [14]: 50.7%
viability, T/C [15]: 50.8%
viability, T/C [28]: 53%
viability, T/C [16]: 94.9%
viability, T/C [17]: 106%
viability, T/C [18]: 0.33%
viability, T/C [19]: 0.98%
viability, T/C [20]: 58.9%
viability, T/C [29]: 2.28%
viability, T/C [21]: 0.34%
viability, T/C [22]: 0.24%
viability, T/C [23]: 0.21%
viability, T/C [24]: 0.52%
viability, T/C [25]: 0.26%
viability, T/C [30]: 0.44%

COC(=O)c1ccc2c(C(=Nc3ccc(N(C)C(=O)CN4CCN(C)CC4)cc3)c3ccccc3)c(O)[nH]c2c1 + CNCc1ccccc1-c1csc(C(C)Nc2nc(C)nc3cc(OC)c(OC)cc23)c1
IC50 (second compound 0.1 µM): 3030 nM
IC50 (second compound 0.316 µM): 1840 nM
IC50 (second compound 1 µM): 3280 nM
IC50 (second compound 3.16 µM): < 31.6 nM
IC50 (second compound 10 µM): < 31.6 nM
viability, T/C [5]: 91%
viability, T/C [26]: 105%
viability, T/C [31]: 120%
viability, T/C [32]: 134%
viability, T/C [33]: 47.5%
viability, T/C [34]: 0.53%
viability, T/C [10]: 83.7%
viability, T/C [27]: 93.3%
viability, T/C [35]: 107%
viability, T/C [36]: 120%
viability, T/C [37]: 5.04%
viability, T/C [38]: 0.18%
viability, T/C [15]: 84.1%
viability, T/C [28]: 90.1%
viability, T/C [39]: 110%
viability, T/C [40]: 110%
viability, T/C [41]: 51.7%
viability, T/C [42]: 1.19%
viability, T/C [20]: 2.05%
viability, T/C [29]: 1.85%
viability, T/C [43]: 2.08%
viability, T/C [44]: 1.25%
viability, T/C [45]: 0.14%
viability, T/C [46]: 1.34%
viability, T/C [25]: 0.42%
viability, T/C [30]: 1.27%
viability, T/C [47]: 0.48%
viability, T/C [48]: 0.14%
viability, T/C [49]: 2.49%
viability, T/C [50]: 0.86%

COc1cc(Nc2ncc3c(n2)-c2ccc(Cl)cc2C(c2c(F)cccc2OC)=NC3)ccc1C(=O)O + CNCc1ccccc1-c1csc(C(C)Nc2nc(C)nc3cc(OC)c(OC)cc23)c1
IC50 (second compound 0.1 µM): > 10000 nM
IC50 (second compound 0.316 µM): > 10000 nM
IC50 (second compound 1 µM): > 10000 nM
IC50 (second compound 3.16 µM): < 31.6 nM
IC50 (second compound 10 µM): < 31.6 nM
viability, T/C [5]: 95.5%
viability, T/C [26]: 89.9%
viability, T/C [31]: 94.6%
viability, T/C [32]: 101%
viability, T/C [33]: 113%
viability, T/C [34]: 89.4%
viability, T/C [10]: 104%
viability, T/C [27]: 84.6%
viability, T/C [35]: 90.9%
viability, T/C [36]: 88.7%
viability, T/C [37]: 90.7%
viability, T/C [38]: 104%
viability, T/C [15]: 93.6%
viability, T/C [28]: 73.3%
viability, T/C [39]: 86.7%
viability, T/C [40]: 78.2%
viability, T/C [41]: 87.3%
viability, T/C [42]: 88.6%
viability, T/C [20]: 1.45%
viability, T/C [29]: 0.8%
viability, T/C [43]: 0.53%
viability, T/C [44]: 1.47%
viability, T/C [45]: 2.38%
viability, T/C [46]: 2.86%
viability, T/C [25]: 0.82%
viability, T/C [30]: 1.21%
viability, T/C [47]: 0.68%
viability, T/C [48]: 0.35%
viability, T/C [49]: 0.3%
viability, T/C [50]: 0.59%

COc1cc2nccc(Oc3ccc(NC(=O)C4(C(=O)Nc5ccc(F)cc5)CC4)cc3)c2cc1OC + CNCc1ccccc1-c1csc(C(C)Nc2nc(C)nc3cc(OC)c(OC)cc23)c1
IC50 (second compound 0.1 µM): > 10000 nM
IC50 (second compound 0.316 µM): > 10000 nM
IC50 (second compound 1 µM): 2160 nM
IC50 (second compound 3.16 µM): < 31.6 nM
IC50 (second compound 10 µM): < 31.6 nM
viability, T/C [5]: 91.1%
viability, T/C [26]: 102%
viability, T/C [31]: 101%
viability, T/C [32]: 108%
viability, T/C [33]: 125%
viability, T/C [34]: 133%
viability, T/C [10]: 94.3%
viability, T/C [27]: 92.9%
viability, T/C [35]: 90.2%
viability, T/C [36]: 87.7%
viability, T/C [37]: 119%
viability, T/C [38]: 109%
viability, T/C [15]: 80.1%
viability, T/C [28]: 75.1%
viability, T/C [39]: 79.3%
viability, T/C [40]: 83.9%
viability, T/C [41]: 32.2%
viability, T/C [42]: 38.4%
viability, T/C [20]: 0.94%
viability, T/C [29]: 0.35%
viability, T/C [43]: 0.42%
viability, T/C [44]: 0.24%
viability, T/C [45]: 0.24%
viability, T/C [46]: 0.24%
viability, T/C [25]: 13.4%
viability, T/C [30]: 0.23%
viability, T/C [47]: 0.2%
viability, T/C [48]: 0.21%
viability, T/C [49]: 0.2%
viability, T/C [50]: 0.28%

O=C(c1cc(Cc2n[nH]c(=O)c3ccccc23)ccc1F)N1CCN(C(=O)C2CC2)CC1 + CNCc1ccccc1-c1csc(C(C)Nc2nc(C)nc3cc(OC)c(OC)cc23)c1
IC50 (second compound 0.1 µM): > 10000 nM
IC50 (second compound 0.316 µM): > 10000 nM
IC50 (second compound 1 µM): > 10000 nM
IC50 (second compound 3.16 µM): < 31.6 nM
IC50 (second compound 10 µM): < 31.6 nM
viability, T/C [5]: 72.8%
viability, T/C [26]: 79.4%
viability, T/C [31]: 75.4%
viability, T/C [32]: 71.6%
viability, T/C [33]: 66.7%
viability, T/C [34]: 71.9%
viability, T/C [10]: 65.6%
viability, T/C [27]: 65.3%
viability, T/C [35]: 64.6%
viability, T/C [36]: 62%
viability, T/C [37]: 56.5%
viability, T/C [38]: 66.5%
viability, T/C [15]: 61.3%
viability, T/C [28]: 68.7%
viability, T/C [39]: 62.8%
viability, T/C [40]: 55%
viability, T/C [41]: 64.3%
viability, T/C [42]: 62.9%
viability, T/C [20]: 1.32%
viability, T/C [29]: 3.56%
viability, T/C [43]: 0.56%
viability, T/C [44]: 0.32%
viability, T/C [45]: 3.02%
viability, T/C [46]: 0.56%
viability, T/C [25]: 0.13%
viability, T/C [30]: 0.47%
viability, T/C [47]: 1.37%
viability, T/C [48]: 0.65%
viability, T/C [49]: 0.77%
viability, T/C [50]: 0.19%
